# Results reported in patent US20200038514A1, “FOLATE CONJUGATE FOR USE IN TARGETING TUMOR ASSOCIATED MACROPHAGES” (ENDOCYTE, INC., priority 2016, published 2020).
# Legend:
# TNBC PDX tumor = test: In vivo activity against triple negative breast tumors (FIG. 10); set-up: species or system mice; conditions: Conjugate 5 0.27 μmol/kg BIW two weeks; erubulin mesylate 1.0 μmol/kg SIW two weeks
# Procedure: (§1) Mice were maintained and tumor volumes were measures according to Method 3.
# Primary human TNBC model ST502 (2-4 mm in diameter) or primary human TNBC model ST738 (2-4 mm in diameter) were inoculated subcutaneously at the right flank of each mouse. Mice were randomized into experimental groups of 7 mice each and test articles were injected through the lateral tail vein under sterile conditions in a volume of […] of phosphate-buffered saline (PBS).
# ST070 ovarian PDX tumors = test: In vivo activity against ovarian tumors; set-up: species or system mice; conditions: Conjugate 5 0.5 μmol/kg SIW; EC1456 4.0 μmol/kg SIW; paclitaxel 15 mg/kg SIW; two weeks
# Procedure: as §1
# Primary human Ovarian model ST070 fragments (2-4 mm in diameter) were inoculated subcutaneously at the right flank of each mouse. Mice were randomized into experimental groups of 7 mice each and test articles were injected through the lateral tail vein under sterile conditions in a volume of […] of phosphate-buffered saline (PBS).
Compound,TNBC PDX tumor size compared to untreated control (TNBC PDX tumor),ovarian PDX tumor size compared to untreated control (ST070 ovarian PDX tumors)
erubulin mesylate [reference compound],did not decrease TNBC PDX tumor size,
"CC(=O)O[C@H]1C(=O)[C@@]2(C)[C@H]([C@H](OC(=O)c3ccccc3)[C@]3(O)C[C@H](OC(=O)[C@H](O)[C@@H](NC(=O)c4ccccc4)c4ccccc4)C(C)=C1C3(C)C)[C@]1(OC(C)=O)CO[C@@H]1C[C@@H]2O [paclitaxel, reference compound]",,did not decrease ovarian PDX tumor size
